# Columns and labels:
# EAE in B6 mice = assay: EAE dose titration experiment in B6 mice with spleen and CNS cell analysis; format: in vivo; conditions: for EAE disease overall, dose titration: 50 µg, 100 µg or 200 µg every day from day 8
# Experimental: A dose titration experiment was also conducted in EAE mice. EAE was induced in 28 B6 mice with MOG/CFA and PT as above. Mice were scored on day 7 as indicated above and divided into groups by score so means are as equal as possible.
# At the completion of the experiment, the vehicle control and 200 µg/day groups were euthanized and spleen and CNS samples obtained.
# RXRα = biological target: T1, RXRα (Homo sapiens, UniProt P19793); assay: RXR homodimer transactivation assay (rCRBPII/RXRE-tk-Luc reporter, CV-1 cells); format: cell-based
# T1 construct: an expression construct including a full length RXRα, RXRβ, or RXRy; expressed in transfected cells; host or cells: CV-1
# T1 sequence (P19793 1-462): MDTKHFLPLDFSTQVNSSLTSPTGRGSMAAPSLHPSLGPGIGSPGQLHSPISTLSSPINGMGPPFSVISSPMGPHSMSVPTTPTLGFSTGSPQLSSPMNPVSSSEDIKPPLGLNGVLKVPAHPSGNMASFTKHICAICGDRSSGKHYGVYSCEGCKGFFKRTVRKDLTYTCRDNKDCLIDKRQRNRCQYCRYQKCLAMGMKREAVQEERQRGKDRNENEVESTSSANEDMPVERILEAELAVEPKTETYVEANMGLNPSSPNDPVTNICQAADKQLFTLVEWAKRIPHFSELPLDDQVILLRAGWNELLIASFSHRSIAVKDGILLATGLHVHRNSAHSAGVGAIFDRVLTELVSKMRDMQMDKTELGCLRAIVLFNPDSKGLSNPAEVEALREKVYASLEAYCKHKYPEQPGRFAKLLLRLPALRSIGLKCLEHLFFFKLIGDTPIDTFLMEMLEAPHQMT
# From the text: (§1) Data are mean values ± SE from five independent experiments.
# RXRγ = biological target: T2, RXRγ (Homo sapiens, UniProt P48443); assay: as above; format: cell-based
# T2 construct: an expression construct including a full length RXRα, RXRβ, or RXRy; expressed in transfected cells; host or cells: CV-1
# T2 sequence (P48443 1-463): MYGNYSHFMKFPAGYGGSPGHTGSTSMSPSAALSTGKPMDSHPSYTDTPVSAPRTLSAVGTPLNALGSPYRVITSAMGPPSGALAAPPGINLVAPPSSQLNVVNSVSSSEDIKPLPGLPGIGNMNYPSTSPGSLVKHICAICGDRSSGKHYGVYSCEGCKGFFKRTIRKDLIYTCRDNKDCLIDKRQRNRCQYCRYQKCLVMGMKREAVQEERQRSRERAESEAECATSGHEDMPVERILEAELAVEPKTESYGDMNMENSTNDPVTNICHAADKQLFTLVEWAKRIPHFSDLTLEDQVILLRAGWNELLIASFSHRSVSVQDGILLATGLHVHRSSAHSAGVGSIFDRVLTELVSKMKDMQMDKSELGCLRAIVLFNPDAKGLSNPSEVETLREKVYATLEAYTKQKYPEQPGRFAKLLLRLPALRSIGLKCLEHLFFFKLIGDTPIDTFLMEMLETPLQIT
# From the text: as §1
# [1] = tested on: demyelination in C57BL/6J mice; assay: Cuprizone/rapamycin (CR) chronic 12-week mouse model of toxic demyelination; format: in vivo; conditions: 12 weeks CR; for # of Myelinated Axons per CC unit (PPD staining, corpus callosum) / % Area of Myelin Cortex (PLP staining) / % Area of Myelin Hippocampus (PLP staining): then 10 mg/kg/d PO daily for 6 weeks, with or without 20 ng/g thyroxine SC
# Experimental: Mice are fed a cuprizone-containing diet and injected with rapamycin daily (CR regimen) for 12 weeks to induce demyelination. One group of animals is sacrificed at 12 weeks to evaluate demyelination. […] At the end of the study, all mice are sacrificed and one or more of the following parameters are determined: (1) PPD (p-phenylenediamine) staining to visualize and quantify myelinated axons in corpus callosum to assess demyelination and remyelination in white matter; (2) myelin proteolipid protein (PLP) immunostaining to visualize and quantify myelin in hippocampus to assess demyelination and remyelination in grey matter (hippocampus); (3) PLP immunostaining to visualize and quantify myelin in cortex to assess demyelination and remyelination in grey matter (cortex); (4) PDGFRα immunostaining to visualize and quantify OPCs in corpus callosum; (5) GSTpi immunostaining to visualize and quantify oligodendrocytes in corpus callosum; (6) Iba1 (ionized calcium-binding adapter molecule 1) and/or Mac-2 (galectin-3) immunostaining to visualize and quantify total and activated microglia in corpus callosum; (7) GFAP (glial fibrillary acidic protein) immunostaining to visualize and quantify astrocytes in corpus callosum To assess astroglial activation; and (8) 3D-electron microscopy in corpus callosum to assess ratio of myelinated and non-myelinated axons, internodal length, G-ratio, mitochondrial changes, etc.
# The animals (8 week-old male C57BL/6J mice) are subjected to cuprizone diet plus rapamycin injections (CR) for 12 weeks to induce demyelination in white matter (CC, corpus callosum). After 12 weeks, CR is discontinued and subsets of animals are treated daily for 6 weeks with one of the following treatment regimens:
# All animals are sacrificed after 12 weeks of CR (Group 7) or after further 6 weeks of treatment (Groups 1-6) to evaluate myelin in white matter (corpus callosum) and gray matter (hippocampus and cortex). In addition, the size of myelinated axons are quantified and the large myelinated axons are further assessed by 3D-electron microscopy (3D-EM).
# A total of 92 mice are included in the study. Eight week-old male C57BL/6J mice are placed on a rodent chow (Harlan) containing 0.3% cuprizone for 12 weeks. These mice are also injected with rapamycin (approximately 10 mg/kg body weight at the volume of 0.1 ml, IP) daily for 12 weeks. Eight mice are maintained on a normal diet. The weight of the animals is monitored on a weekly-basis.
# The drug is reconstituted in vehicle (DMSO/PBS/Tween) and fresh drug is made up once a week and administered orally once daily. […] Similarly, subgroups (n=12) of CR treated mice are treated with oral IRX4204EE and subcutaneous thyroxine vehicle (Group 5) or oral IRX4204EE and subcutaneous thyroxine (Group 6) at the indicated doses.
# Epon-PPD stained sections of corpus callosum are evaluated in bright field at 10X, 20X and 63X (oil objective). A total of 4 images (63X) per animal are collected in the region of interest (ROI), which is a specific region between the rostral corpus callosum and the junction of the fornix. The images outside the ROI are not scored. The images are then evaluated using NIH ImageJ (aka. Fiji) to identify and count myelinated axons in the region of interest. The numbers of PPD-stained myelinated axons in all of the counting boxes for each image are counted. Using the polygon selection tool, the margins of the corpus callosum in each slice are identified and ImageJ is then used to calculate the total area of the CC in that slice. The total number of myelinated axons in a specific area of the corpus callosum is then calculated by dividing the total area of the CC by the total area of the counting boxes and multiplying by the combined number of myelinated axons that are counted in all of the counting boxes for each image. […]
# [2] = CV-1 cells, 20 hours, luciferase activity
# [3] = 200 µg/day, restimulation with PMA/Ionomycin
structure (smiles),measurement,setting,value
"CCOC(=O)/C=C(C)/C=C/[C@@H]1C[C@]1(C)c1ccc2c(c1)C(C)(C)CCC2(C)C [IRX4204EE, 3,7-dimethyl-6(S),7(S)-methano,7-[1,1,4,4-tetramethyl-1,2,3,4-tetrahydronaphth-7-yl]2(E),4(E) heptadienoic ethyl ester]","EAE disease overall, dose titration",EAE in B6 mice,more active than IRX4204 at each of the doses tested
same,EC50,RXRα; [2],> 1000 nM
same,EC50,RXRγ; [2],> 1000 nM
same,"# of Myelinated Axons per CC unit (PPD staining, corpus callosum)",[1],4300
same,% Area of Myelin Cortex (PLP staining),[1],85%
same,% Area of Myelin Hippocampus (PLP staining),[1],68%
same,increase in myelin volume compared to vehicles control,[1]; then 6 weeks treatment,approximately 25%
same,remyelination and neuroprotection activity relative to IRX4204 groups,[1]; then 6 weeks treatment,greater remyelination and neuroprotection activity than the corresponding IRX4204 treated groups
"CC(/C=C/[C@@H]1C[C@]1(C)c1ccc2c(c1)C(C)(C)CCC2(C)C)=C\C(=O)O [IRX4204, 3,7-dimethyl-6(S),7(S)-methano,7-[1,1,4,4-tetramethyl-1,2,3,4-tetrahydronaphth-7-yl]2(E),4(E) heptadienoic acid]","EAE disease overall, dose titration",EAE in B6 mice,significantly less disease overall
same,"CCR6 expression on CD4 T cells, spleen",EAE in B6 mice; 200 µg/day,lowered
same,co-expression of IFNg and IL-17A by CD4 T cells in CNS,EAE in B6 mice; 200 µg/day,not significantly different between groups
same,"frequency of CD4+ CD25hi cells, spleen",EAE in B6 mice; 200 µg/day,not altered
same,"number of CD4+ CD25hi cells, spleen",EAE in B6 mice; 200 µg/day,reduced
same,"total number of effector and memory CD4 T cells (CD44), spleen",EAE in B6 mice; 200 µg/day,decreased
same,total number of infiltrating CD4 T cells in the CNS,EAE in B6 mice; 200 µg/day,reduced
same,"total number of recently activated CD4 T cells (CD69 and CD44), spleen",EAE in B6 mice; 200 µg/day,also decreased
same,IFNγ production by CNS infiltrating lymphocytes,EAE in B6 mice; [3],significantly reduced
same,TNF production by CNS infiltrating lymphocytes,EAE in B6 mice; [3],significantly reduced
same,EC90,RXRα; CV-1,~0.1 nM
same,Efficacy (% of 1 µM IRX4204) RXRα,RXRα; [2],100 % of 1 µM IRX4204
same,Efficacy (% of 1 µM IRX4204) RXRγ,RXRγ,0.09 ±0.01 100 % of 1 µM IRX4204
same,EC90,"RXRγ; CV-1, read-out: EC90 with RXRγ",~0.1 nM
same,"# of Myelinated Axons per CC unit (PPD staining, corpus callosum)",[1],1570
same,% Area of Myelin Cortex (PLP staining),[1],48%
same,% Area of Myelin Hippocampus (PLP staining),[1],38%
same,average diameter of myelinated axons,[1]; then 6 weeks treatment,approximately 0.9 µm
same,increase in myelin volume compared to vehicles control,[1]; then 6 weeks treatment,approximately 15%

# Source: US20230129034A1, “TREATMENT OF DISEASE WITH ESTERS OF SELECTIVE RXR AGONISTS” (Io Therapeutics, Inc., priority 2017, published 2023)
